The values that follow come from US20250206747A1, “COELENTERAZINE ANALOGUES” (priority 2023, published 2025).

The experiment has as its target NANOLUC® luciferase (Oplophorus gracilirostris, UniProt Q9GV45, A31E/A60N/A81I/F95D/I117V/K70R/L54V/L99Q/M102K/N193R/P142E/Q151K/Q38R/Q45L/V71I/Y165I). The experiment is described as follows: Michaelis-Menten analysis of relative luminescence produced by NANOLUC luciferase at various concentrations of coelenterazine analogues. The class given is biochemical. As to conditions: 0.01 nM NANOLUC luciferase.

NANOLUC® luciferase, sequence (Q9GV45 other isoform, or with tags, fused parts or gaps with the stated changes): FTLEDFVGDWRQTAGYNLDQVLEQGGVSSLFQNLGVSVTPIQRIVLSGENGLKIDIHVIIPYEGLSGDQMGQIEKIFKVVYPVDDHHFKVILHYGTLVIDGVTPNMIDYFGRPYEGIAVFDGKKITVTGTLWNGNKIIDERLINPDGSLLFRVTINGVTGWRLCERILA

One may read the Km as the substrate concentration at which the rate is half of its maximum. In the case of `O=c1c(Cc2ccco2)nc2c(-c3cnnc(Cl)c3)[nH]c(-c3cccc(F)c3)cn1-2` [Compound 10299], the Michaelis constant (Km) (Table 1) was determined as 0.15 µM.

Take `COc1cccc(-c2cn3c(=O)c(Cc4ccco4)nc-3c(-c3cnnc(Cl)c3)[nH]2)c1` [Compound 10300]: for the setting “Table 1”, the Km turned out to be 0.27 µM. `O=c1c(Cc2ccco2)nc2c(-c3cnnc(Cl)c3)[nH]c(-c3cccc(F)c3F)cn1-2` [Compound 10427, 8-(6-chloropyridazin-4-yl)-6-(2,3-difluorophenyl)-2-(furan-2-ylmethyl)imidazo[1,2-a]pyrazin-3(7H)-one]: the Michaelis constant (Km) (Table 2) is 0.16 µM.
